Data: PubChem BioAssay AID248 (DTP/NCI, 2004)
Several values for one entry are separate records, joined by “and”; a condition that tells them apart may be missing. Equal entries are not always repeated. Inconclusive results and toxic doses are left out. No stated cut-off is given here; in the data, active means T/C of 150% or more; inactive means T/C below 125%.

System: L1210 leukemia ip in BDF1 mice, survival T/C
Test: NCI In Vivo Anticancer Drug Screen. Data for tumor model L1210 Leukemia (intraperitoneal) in B6D2F1 (BDF1) mice
Details: endpoint: mean survival time, higher = longer survival
Summary of the method: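 Transplanted-tumor mice were given test agent; controls received vehicle only. Survival readings from the two groups were divided (treated over control).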

[1] = dose: 100.0 mg/kg/injection, schedule: Q01DX009 (ip), vehicle: saline
[2] = dose: 200.0 mg/kg/injection, schedule: Q01DX009 (ip), vehicle: saline
[3] = dose: 400.0 mg/kg/injection, schedule: Q01DX009 (ip), vehicle: saline
[4] = dose: 100.0 mg/kg/injection, schedule: Q01DX001 (ip), vehicle: saline
[5] = dose: 200.0 mg/kg/injection, schedule: Q01DX001 (ip), vehicle: saline
[6] = dose: 400.0 mg/kg/injection, schedule: Q01DX001 (ip), vehicle: saline
[7] = dose: 100.0 mg/kg/injection, schedule: Q04DX003 (ip), vehicle: saline with Tween-80
[8] = dose: 200.0 mg/kg/injection, schedule: Q04DX003 (ip), vehicle: saline with Tween-80
[9] = dose: 400.0 mg/kg/injection, schedule: Q04DX003 (ip), vehicle: saline with Tween-80
[10] = dose: 100.0 mg/kg/injection, schedule: Q04DX003 (ip), vehicle: saline
[11] = dose: 200.0 mg/kg/injection, schedule: Q04DX003 (ip), vehicle: saline
[12] = dose: 400.0 mg/kg/injection, schedule: Q04DX003 (ip), vehicle: saline
[13] = dose: 25.0 mg/kg/injection, schedule: Q01DX009 (ip), vehicle: saline
[14] = dose: 50.0 mg/kg/injection, schedule: Q01DX009 (ip), vehicle: saline
[15] = dose: 100.0 mg/kg/injection, schedule: Q01DX009 (ip), vehicle: saline with Tween-80
[16] = dose: 200.0 mg/kg/injection, schedule: Q01DX009 (ip), vehicle: saline with Tween-80
[17] = dose: 400.0 mg/kg/injection, schedule: Q01DX009 (ip), vehicle: saline with Tween-80
[18] = dose: 50.0 mg/kg/injection, schedule: Q01DX009 (ip), vehicle: saline with Tween-80
[19] = dose: 100.0 mg/kg/injection, schedule: Q01DX001 (ip), vehicle: saline with Tween-80
[20] = dose: 200.0 mg/kg/injection, schedule: Q01DX001 (ip), vehicle: saline with Tween-80
[21] = dose: 400.0 mg/kg/injection, schedule: Q01DX001 (ip), vehicle: saline with Tween-80
[22] = dose: 100.0 mg/kg/injection, schedule: Q04DX003 (ip), vehicle: Klucel (hydroxypropylcellulose) (HPC)
[23] = dose: 200.0 mg/kg/injection, schedule: Q04DX003 (ip), vehicle: Klucel (hydroxypropylcellulose) (HPC)
[24] = dose: 400.0 mg/kg/injection, schedule: Q04DX003 (ip), vehicle: Klucel (hydroxypropylcellulose) (HPC)
[25] = dose: 25.0 mg/kg/injection, schedule: Q01DX009 (ip), vehicle: saline with Tween-80
[26] = dose: 75.0 mg/kg/injection, schedule: Q01DX001 (ip), vehicle: saline
[27] = dose: 150.0 mg/kg/injection, schedule: Q01DX001 (ip), vehicle: saline

Measured: T/C

CCCCC1C(=O)N(c2ccccc2)N(c2ccccc2)C1=O
inactive: dose: 17.0 mg/kg/injection, schedule: Q01DX Z (ip), vehicle: water 97 % of control | dose: 40.0 mg/kg/injection, schedule: Q01DX Z (ip), vehicle: water 100 % of control | dose: 60.0 mg/kg/injection, schedule: Q01DX Z (ip), vehicle: water 103 % of control | dose: 90.0 mg/kg/injection, schedule: Q01DX Z (ip), vehicle: water 100 % of control | dose: 135.0 mg/kg/injection, schedule: Q01DX Z (ip), vehicle: water 114 % of control

O=C(NN=C1CCCC1)c1ccccc1O
inactive: [1] 102 % of control | [2] 102 % of control | [3] 120 % of control

Cc1cc(C(C)(CC(C)C)c2ccc(O)c(C)c2)ccc1O
inactive: dose: 25.0 mg/kg/injection, schedule: Q01DX009 (ip), vehicle: gum acacia 96 % of control | dose: 50.0 mg/kg/injection, schedule: Q01DX009 (ip), vehicle: gum acacia 98 % of control | dose: 100.0 mg/kg/injection, schedule: Q01DX009 (ip), vehicle: gum acacia 93 % of control and 89 % of control | dose: 100.0 mg/kg/injection, schedule: Q04DX003 (ip), vehicle: gum acacia 97 % of control | dose: 200.0 mg/kg/injection, schedule: Q04DX003 (ip), vehicle: gum acacia 93 % of control | dose: 400.0 mg/kg/injection, schedule: Q04DX003 (ip), vehicle: gum acacia 90 % of control

O=C(c1ccccc1)C(C(=O)c1ccccc1)C(c1ccccc1)C(C(=O)c1ccccc1)C(c1ccccc1)c1ccccc1 (centres undefined)
inactive: [4] 87 % of control | [5] 89 % of control | [6] 92 % of control and 91 % of control

CC(C)(C)OC(=O)N/N=C/c1ccc([N+](=O)[O-])s1
inactive: [7] 94 % of control | [8] 98 % of control | [9] 89 % of control

CCC1=C(c2ccccc2)OS(=O)(=O)NC1=O
inactive: [10] 97 % of control | [11] 97 % of control | [12] 109 % of control

Cc1cc(Oc2ccc(Cl)cc2NC(=O)Nc2ccc(Cl)c(Cl)c2)c(S(=O)(=O)O)cc1Cl
inactive: dose: 12.5 mg/kg/injection, schedule: Q04DX003 (ip), vehicle: saline 103 % of control | [13] 103 % of control | dose: 25.0 mg/kg/injection, schedule: Q04DX003 (ip), vehicle: saline 105 % of control | [14] 95 % of control | dose: 50.0 mg/kg/injection, schedule: Q04DX003 (ip), vehicle: saline 103 % of control | [1] 101 % of control | [10] 97 % of control

OCCNCc1ccccc1
inactive: [15] 93 % of control | dose: 100.0 mg/kg/injection, schedule: Q01DX009 (ip), vehicle: water 95 % of control | dose: 100.0 mg/kg/injection, schedule: Q04DX003 (ip), vehicle: water 104 % of control | [16] 102 % of control | dose: 200.0 mg/kg/injection, schedule: Q01DX009 (ip), vehicle: water 103 % of control | dose: 200.0 mg/kg/injection, schedule: Q04DX003 (ip), vehicle: water 102 % of control | [17] 86 % of control | dose: 400.0 mg/kg/injection, schedule: Q01DX009 (ip), vehicle: water 105 % of control | dose: 400.0 mg/kg/injection, schedule: Q04DX003 (ip), vehicle: water 102 % of control

CC(=O)C(C(C)=O)C1C=CC=CC=C1
inactive: [18] 93 % of control | [15] 104 % of control | [10] 95 % of control | [16] 86 % of control | [11] 122 % of control

O=C(O)CCCc1ccc2ccccc2n1
inactive: dose: 50.0 mg/kg/injection, schedule: Q01DX001 (ip), vehicle: alkali diluted with saline 101 % of control | dose: 100.0 mg/kg/injection, schedule: Q01DX001 (ip), vehicle: alkali diluted with saline 103 % of control | dose: 200.0 mg/kg/injection, schedule: Q01DX001 (ip), vehicle: alkali diluted with saline 97 % of control | dose: 400.0 mg/kg/injection, schedule: Q01DX001 (ip), vehicle: alkali diluted with saline 103 % of control

O=[N+]([O-])c1ccc(OCc2ccc(COc3ccc(S(=O)(=O)F)cc3)cc2)c(Cl)c1
inactive: [19] 90 % of control | [20] 102 % of control | [21] 96 % of control

CCC(C)C(CCCN1CCCCC1)(CNC(=O)CN(CC)CC)c1cccc2ccccc12 (centres undefined)
inactive: [13] 96 % of control | [14] 100 % of control | [1] 103 % of control | [10] 103 % of control

COc1ccc(OCC(=O)c2ccccc2)cc1
inactive: [22] 102 % of control | [23] 98 % of control | [24] 98 % of control

NS(=O)(=O)c1ccccc1C(=O)O
inactive: [1] 96 % of control | [2] 91 % of control

Cc1ccc(Cl)cc1NC(=O)N1C(C)CCCC1C (centres undefined)
inactive: [25] 94 % of control and 110 % of control | [18] 106 % of control and 108 % of control | dose: 50.0 mg/kg/injection, schedule: Q04DX003 (ip), vehicle: saline with Tween-80 100 % of control | [19] 101 % of control and 118 % of control | [4] 102 % of control | dose: 100.0 mg/kg/injection, schedule: Q04DX002 (ip), vehicle: saline with Tween-80 95 % of control and 89 % of control | [7] 104 % of control | [20] 101 % of control and 110 % of control | [5] 108 % of control | dose: 200.0 mg/kg/injection, schedule: Q04DX002 (ip), vehicle: saline with Tween-80 93 % of control and 106 % of control | [8] 109 % of control | [21] 101 % of control | dose: 400.0 mg/kg/injection, schedule: Q04DX002 (ip), vehicle: saline with Tween-80 102 % of control

O=C1NCCc2cc3c(cc21)OCO3
inactive: dose: 25.0 mg/kg/injection, schedule: Q04DX002 (ip), vehicle: saline 97 % of control | dose: 50.0 mg/kg/injection, schedule: Q04DX002 (ip), vehicle: saline 106 % of control | dose: 100.0 mg/kg/injection, schedule: Q04DX002 (ip), vehicle: saline 103 % of control

CCN(c1ccccc1C)S(=O)(=O)c1ccccc1
inactive: dose: 100.0 mg/kg/injection, schedule: Q01DX009 (ip), vehicle: Klucel (hydroxypropylcellulose) (HPC) 109 % of control | [22] 103 % of control | dose: 200.0 mg/kg/injection, schedule: Q01DX009 (ip), vehicle: Klucel (hydroxypropylcellulose) (HPC) 101 % of control | [23] 93 % of control | dose: 400.0 mg/kg/injection, schedule: Q01DX009 (ip), vehicle: Klucel (hydroxypropylcellulose) (HPC) 87 % of control | [24] 95 % of control

O=[N+]([O-])c1ccc(N/N=C/c2cccc(CO)c2)c([N+](=O)[O-])c1
inactive: [15] 98 % of control | [16] 95 % of control | [17] 100 % of control

[Cl][Fe]([Cl])[Cl]
inactive: dose: 12.5 mg/kg/injection, schedule: Q01DX009 (ip), vehicle: saline with Tween-80 98 % of control | [25] 94 % of control | [26] 96 % of control | [7] 93 % of control | [27] 93 % of control | [8] 94 % of control | dose: 300.0 mg/kg/injection, schedule: Q01DX001 (ip), vehicle: saline 98 % of control | [9] 105 % of control

NC(N)=NCCCCNCCCN=C(N)N
inactive: [26] 98 % of control | [27] 107 % of control

C[N+](C)(C)Cc1ccco1
inactive: [13] 103 % of control | [14] 93 % of control | [1] 95 % of control and 90 % of control

CCCCC(=O)N/N=C/c1ccc(NC(C)=O)cc1
inactive: [4] 102 % of control | [5] 102 % of control | [6] 102 % of control

CC(C)=C1C2C=CC1C(C(=O)N(C)C)C2C(=O)N(C)C (centres undefined)
inactive: [1] 96 % of control | [10] 113 % of control | [2] 98 % of control | [11] 108 % of control | [3] 104 % of control | [12] 100 % of control

[CH3][Sb]1([Br])[CH2]CC[CH2]1
inactive: [10] 93 % of control | [11] 101 % of control
